The test system of assay [1] is canine S. pseudintermedius strains. Kind of assay: MIC, broth microdilution (CLSI). Format: cell-based, Staphylococcus pseudintermedius. The method, then:
(§1) Sixty-six well-characterized staphylococcal strains (60 S. pseudintermedius and 6 S. aureus strains) were selected from the archived previously described collection. This study was conducted based on a retrospective analysis of staphylococcal canine strains isolated and archived at the Laboratory of Department of Medical Microbiology of MUG during routine clinical laboratory procedures. All samples were routinely collected by a veterinarian during the course of infection treatment or control visits, not specifically for this research. The animals were swabbed only after the owner’s consent was given, as we stated in the previous published study.
(§2) Staphylococcal strains were classified as multidrug-resistant (MDR) when they were not susceptible to at least one agent in three different classes of antimicrobials. Sixty examined S. pseudintermedius strains included thirty multidrug-resistant strains (MDRSP) and seven methicillin-resistant strains (MRSP). Six canine S. aureus strains, including three multidrug-resistant strains (MDRSA). S. pseudintermedius strains, including MDRSP (n = 30) and MRSP (7) strains, were resistant to: amoxicillin (61.6%), clindamycin (48.3%), erythromycin (45%), gentamicin (33.3%), chloramphenicol (26.6%), sulfamethoxazole/trimethoprim (25%), tetracycline (20%), cefadroxil (11.6%), oxacillin (11.6%) and ciprofloxacin (10%). Six S. aureus strains, including MDRSA (n = 3), were resistant to: amoxicillin (3/6), erythromycin (3/6), gentamicin (3/6), clindamycin (2/6), chloramphenicol (1/6), sulfamethoxazole/trimethoprim (1/6) and doxycycline (1/6). The following reference strains were used: S. aureus ATCC 6538 (MSSA), S. aureus ATCC 43300 (MRSA), S. intermedius PCM 2405. Both the reference- and clinical strains were stored at −80 °C in Tryptic Soy Broth (TSB, Becton–Dickinson, USA) supplemented with 15% glycerol.
(§3) The antimicrobial susceptibility of each strain to the tested peptides was determined using the minimal inhibitory concentrations (MIC) microdilution method as recommended by the Clinical Laboratory Standards Institute (CLSI) guidelines. Briefly, the staphylococcal strains were grown overnight on a Columbia blood agar (Graso Biotech, Poland) at 37 °C. Isolated colonies were suspended in saline solution and adjusted to a 0.5 McFarland standard. The bacterial suspension was diluted ~ 1:100 to a final concentration of 1 × 10^6 colony forming units (cfu/mL). Two-fold serial dilutions of each tested peptide in Mueller–Hinton Broth 2 (Sigma–Aldrich) were added (100 µL) to polypropylene 96-well plates containing bacterial inoculum (100 µL) and were incubated at 37 °C for 18 h. All clinical and reference strains were tested in duplicate. Bacterial growth was assessed visually after incubation and MIC was recorded as the lowest drug concentration at which an observable growth was inhibited. The MIC50 and MIC90 values were defined as the lowest concentrations of peptides at which 50% and 90% of the strains were inhibited, respectively.
In general terms: In broth dilution the organism is exposed to a series of concentrations in liquid medium.

The subject of assay [2] is canine S. aureus strains. In words: MBC, subculture from MIC assay. In kind it is cell-based, Staphylococcus aureus. Conditions: 48 h. As to the method: (§4) The loopful (10 µl) of the tested sample was transferred to Triptic Soy Broth (TSB, BD Difco) and incubated at 37 °C for 48 h. MBC was taken as the lowest concentration of each peptide at which staphylococcal colonies were no longer viable on the subculture.

Assay [3] has as its system canine S. aureus strains. In words: MIC, broth microdilution (CLSI). In kind it is cell-based, Staphylococcus aureus. The method, then:
as §1, §2, §3

For assay [4], the system named is canine S. pseudintermedius strains. In words: MBC, subculture from MIC assay. Format: cell-based, Staphylococcus pseudintermedius. Conditions: 48 h. As to the method:
as §4

Where [5] appears, read: canine S. pseudintermedius (I), 60 strains, Mueller–Hinton Broth 2, 1 × 10^6 cfu/mL, 37 °C, 18 h, visual, duplicate.
The mark [6] stands for this setting: canine S. pseudintermedius (I), 60 strains, lowest concentration inhibiting 50% of strains.
[7] abbreviates: canine S. pseudintermedius (I), 60 strains, lowest concentration inhibiting 90% of strains.
The mark [8] stands for this setting: canine S. aureus (II), 6 strains, 10 µl subcultured in TSB, 37 °C.
The mark [9] stands for this setting: canine S. aureus (II), 6 strains, Mueller–Hinton Broth 2, 1 × 10^6 cfu/mL, 37 °C, 18 h, visual, duplicate.
The mark [10] stands for this setting: canine S. aureus (II), 6 strains, lowest concentration inhibiting 50% of strains.
The mark [11] stands for this setting: canine S. aureus (II), 6 strains, lowest concentration inhibiting 90% of strains.
The mark [12] stands for this setting: canine S. pseudintermedius (I), 60 strains, 10 µl subcultured in TSB, 37 °C.

Where no end group is shown, it is not given here.

In the case of GIGKFLKKAKKFGKAFVKILKK-NH2 [Pexiganan], in assay [1] (18 h), the MIC50 stood at 4 µg/mL, the MIC90 was found to be 4 µg/mL and the “MIC Median (IQR)” value is listed as 4 (2–4) µg/mL. For the same substance, the “MBC Median (IQR)” value in assay [2] (canine strains) was 8 (8–8) µg/mL. In assay [3] (canine strains, 18 h), the MIC50 amounted to 4 µg/mL, the MIC90 came to 8 µg/mL and the “MIC Median (IQR)” value is 6 (4–8) µg/mL. Moreover, the “MBC Median (IQR)” value in assay [4] is 4 (2–4) µg/mL.

FLPLIGRVLSGIL-NH2 [Temporin A]: in assay [1] (18 h), the MIC50 turned out to be 8 µg/mL, the MIC90 is listed as 8 µg/mL and the “MIC Median (IQR)” value is recorded as 8 (4–8) µg/mL. Further, the “MBC Median (IQR)” value in assay [2] (canine strains) is listed as 8 (8–14) µg/mL. In assay [3] (canine strains, 18 h), the MIC50 was found to be 8 µg/mL, the MIC90 is on record as 8 µg/mL and the “MIC Median (IQR)” value is recorded as 8 (8–8) µg/mL. In addition, in assay [4], the “MBC Median (IQR)” value was 8 (8–8) µg/mL.

Consider GLFDVIKKVASVIGGL-NH2 [Citropin 1.1], for which the MIC50 came out at 4 µg/mL in assay [1] (18 h) and 8 µg/mL in assay [3] (canine strains, 18 h). For the same substance, the MIC90 stood at 4 µg/mL in assay [1] (18 h) and 16 µg/mL in assay [3] (canine strains, 18 h). For the same substance, the “MIC Median (IQR)” value is reported as 4 (4–4) µg/mL in assay [1] (18 h) and 8 (8–14) µg/mL in assay [3] (canine strains, 18 h). Moreover, the “MBC Median (IQR)” value was 12 (8–16) µg/mL in assay [2] (canine strains) and 4 (4–4) µg/mL in assay [4].

On to GVIDAAKKVVNVLKNLF-NH2 [Uperin 3.6], for which, in assay [1] (18 h), the MIC50 is given as 2 µg/mL, the MIC90 is reported as 2 µg/mL and the “MIC Median (IQR)” value is listed as 2 (2–2) µg/mL. Besides, the “MBC Median (IQR)” value in assay [2] (canine strains) was 16 (16–16) µg/mL. Moreover, in assay [3] (canine strains, 18 h), the MIC50 stood at 8 µg/mL, the MIC90 is recorded as 16 µg/mL and the “MIC Median (IQR)” value is 8 (8–14) µg/mL. In assay [4], the “MBC Median (IQR)” value is 2 (2–4) µg/mL.

On to GLFDIIKKIAESF-NH2 [Aurein 1.2], for which the “MIC Median (IQR)” value is on record as 32 (32–32) µg/mL in assay [1] (setting [5]) and 128 (128–128) µg/mL in assay [3] (setting [9]). Moreover, the figures for the MIC50 in assay [1] (setting [6]) and in assay [3] (setting [10]) were 32 µg/mL and 128 µg/mL, respectively. For the same substance, the results for the MIC90 in assay [1] (setting [7]) and in assay [3] (setting [11]) were 32 µg/mL and 256 µg/mL, respectively. The entries for the “MBC Median (IQR)” value in assay [2] (setting [8]) and in assay [4] (setting [12]) were 128 (128–224) µg/mL and 64 (64–64) µg/mL, respectively.

For the substance KWKLFKKIGAVLKVL-NH2 [CAMEL], the entries for the “MIC Median (IQR)” value in assay [1] (setting [5]) and in assay [3] (setting [9]) were 2 (2–4) µg/mL and 4 (4–4) µg/mL, respectively. Also, the MIC50 is reported as 2 µg/mL in assay [1] (setting [6]) and 4 µg/mL in assay [3] (setting [10]). In addition, the MIC90 in assay [1] (setting [7]) and in assay [3] (setting [11]) was 4 µg/mL in each case. For the same substance, the figures for the “MBC Median (IQR)” value in assay [2] (setting [8]) and in assay [4] (setting [12]) were 4 (4–4) µg/mL and 4 (2–4) µg/mL, respectively.

As a reminder, the MIC50 is an inhibitory concentration at the 50% level, which refers to growth in some studies and to a panel of isolates in others. A higher MIC50 goes with weaker potency. The term MIC90 denotes an inhibitory concentration at the 90% level, which refers to growth in some studies and to a panel of isolates in others. The low end stands for higher susceptibility, the high end for lower susceptibility.

Values taken from article PMC7143510, “In Vitro Efficiency of Antimicrobial Peptides against Staphylococcal Pathogens Associated with Canine Pyoderma” (Animals : an Open Access Journal from MDPI, 2020).
